Target: T1, Dimer of Gag-Pol polyprotein [489-587] (Human immunodeficiency virus 1, UniProt P12497)
T1 construct: 489-587
Test: Protease Inhibition Assay
Conditions: pH 6; 37 °C
Protocol: Sensitivity of HIV-1 protease activity to protease inhibitors was determined by a peptide substrate cleavage assay. Substrates and cleavage fragments were separated by reverse-phase HPLC, detected by absorbance at 215 nm, and quantified by comparison with a synthetic product standard.

| SMILES | Ki |
| --- | --- |
| CCc1c(O)cccc1C(=O)N[C@@H](Cc1ccccc1)[C@H](O)C(=O)N1CSC(C)(C)[C@H]1C(=O)NCc1ccccc1C [(R)-N-(2-Methylbenzyl)-3-[(2S,3S)-3-(2-ethyl-3-hydroxybenzoyl)amino-2-hydroxy-4-phenylbutanoyl]-5,5-methyl-1,3-thiazolidine-4-carboxamide] | 0.16 nM |
| CSC[C@H](NC(=O)COc1cccc2cnccc12)C(=O)N[C@@H](Cc1ccccc1)[C@H](O)C(=O)N1CSC[C@H]1C(=O)NC(C)(C)C [Kynostatin 272] | 0.74 nM |
| CSC[C@H](NC(=O)COc1cccc2cnccc12)C(=O)N[C@@H](Cc1ccccc1)[C@H](O)C(=O)N1CSC(C)(C)[C@H]1C(=O)NC(C)(C)C | 0.088 nM |
